Experimental data: PubChem BioAssay AID1259407 (Chemical Carcinogenesis Research Information System (CCRIS), 2018)
Active and inactive are the calls of the source. The rule behind the calls is not given here.

Tested on: CCRIS mutagenicity, Ames/micronucleus/aberration tests
Assay: CCRIS mutagenicity studies
[1] = Test System: AMES SALMONELLA TYPHIMURIUM, Strain/Indicator: TA98, Metabolic Activation: NONE, Method: PREINCUBATION
[2] = Test System: AMES SALMONELLA TYPHIMURIUM, Strain/Indicator: TA100, Metabolic Activation: NONE, Method: PREINCUBATION
[3] = Test System: AMES SALMONELLA TYPHIMURIUM, Strain/Indicator: TA98, Metabolic Activation: NONE, Method: STANDARD PLATE
[4] = Test System: AMES SALMONELLA TYPHIMURIUM, Strain/Indicator: TA100, Metabolic Activation: NONE, Method: STANDARD PLATE
[5] = Test System: AMES SALMONELLA TYPHIMURIUM, Strain/Indicator: TA98, Metabolic Activation: HAMSTER, LIVER, S-9, AROCLOR 1254 (10%), Method: PREINCUBATION
[6] = Test System: AMES SALMONELLA TYPHIMURIUM, Strain/Indicator: TA98, Metabolic Activation: RAT, LIVER, S-9, AROCLOR 1254 (10%), Method: PREINCUBATION
[7] = Test System: AMES SALMONELLA TYPHIMURIUM, Strain/Indicator: TA100, Metabolic Activation: HAMSTER, LIVER, S-9, AROCLOR 1254 (10%), Method: PREINCUBATION
[8] = Test System: AMES SALMONELLA TYPHIMURIUM, Strain/Indicator: TA100, Metabolic Activation: RAT, LIVER, S-9, AROCLOR 1254 (10%), Method: PREINCUBATION
[9] = Test System: AMES SALMONELLA TYPHIMURIUM, Strain/Indicator: TA1535, Metabolic Activation: HAMSTER, LIVER, S-9, AROCLOR 1254 (10%), Method: PREINCUBATION
[10] = Test System: AMES SALMONELLA TYPHIMURIUM, Strain/Indicator: TA1535, Metabolic Activation: NONE, Method: PREINCUBATION
[11] = Test System: AMES SALMONELLA TYPHIMURIUM, Strain/Indicator: TA1535, Metabolic Activation: RAT, LIVER, S-9, AROCLOR 1254 (10%), Method: PREINCUBATION
[12] = Test System: AMES SALMONELLA TYPHIMURIUM, Strain/Indicator: TA1537, Metabolic Activation: HAMSTER, LIVER, S-9, AROCLOR 1254 (10%), Method: PREINCUBATION
[13] = Test System: AMES SALMONELLA TYPHIMURIUM, Strain/Indicator: TA1537, Metabolic Activation: NONE, Method: PREINCUBATION
[14] = Test System: AMES SALMONELLA TYPHIMURIUM, Strain/Indicator: TA1537, Metabolic Activation: RAT, LIVER, S-9, AROCLOR 1254 (10%), Method: PREINCUBATION
[15] = Test System: AMES SALMONELLA TYPHIMURIUM, Strain/Indicator: TA100, Metabolic Activation: S-9, Method: STANDARD PLATE

Measured: mutagenic call

CCCCCCCC(=O)Cl
inactive: Test System: AMES SALMONELLA TYPHIMURIUM, Strain/Indicator: TA98, Metabolic Activation: HAMSTER, LIVER, S-9, AROCLOR 1254 (30%), Method: PREINCUBATION inactive; negative | [1] inactive; negative | Test System: AMES SALMONELLA TYPHIMURIUM, Strain/Indicator: TA98, Metabolic Activation: RAT, LIVER, S-9, AROCLOR 1254 (30%), Method: PREINCUBATION inactive; negative | Test System: AMES SALMONELLA TYPHIMURIUM, Strain/Indicator: TA100, Metabolic Activation: HAMSTER, LIVER, S-9, AROCLOR 1254 (10 OR 30%), Method: PREINCUBATION inactive; negative | [2] inactive; negative | Test System: AMES SALMONELLA TYPHIMURIUM, Strain/Indicator: TA100, Metabolic Activation: RAT, LIVER, S-9, AROCLOR 1254 (5 OR 10%), Method: PREINCUBATION inactive; negative | Test System: AMES SALMONELLA TYPHIMURIUM, Strain/Indicator: TA100, Metabolic Activation: RAT, LIVER, S-9, AROCLOR 1254 (30%), Method: PREINCUBATION inactive; negative | Test System: AMES SALMONELLA TYPHIMURIUM, Strain/Indicator: TA1535, Metabolic Activation: HAMSTER, LIVER, S-9, AROCLOR 1254 (5, 10 OR 30%), Method: PREINCUBATION inactive; negative | Test System: AMES SALMONELLA TYPHIMURIUM, Strain/Indicator: TA1535, Metabolic Activation: RAT, LIVER, S-9, AROCLOR 1254 (5, 10 OR 30%), Method: PREINCUBATION inactive; negative
active: Test System: AMES SALMONELLA TYPHIMURIUM, Strain/Indicator: TA100, Metabolic Activation: HAMSTER, LIVER, S-9, AROCLOR 1254 (5%), Method: PREINCUBATION active; positive | Test System: AMES SALMONELLA TYPHIMURIUM, Strain/Indicator: TA100, Metabolic Activation: HAMSTER, LIVER, S-9, AROCLOR 1254 (30%), Method: PREINCUBATION active; positive

ONc1ccccc1-c1ccccc1
active: [4] active; positive
inactive: [3] inactive; negative

O=[N+]([O-])c1c2ccccc2cc2c1ccc1ccccc12
inactive: [3] inactive; negative | [4] inactive; negative

CCCCCCOC(=O)c1ccccc1C(=O)OCCCCCC
inactive: [5] inactive; negative | [1] inactive; negative | [6] inactive; negative | [7] inactive; negative | [2] inactive; negative | [8] inactive; negative | [9] inactive; negative | [10] inactive; negative | [11] inactive; negative | [12] inactive; negative | [13] inactive; negative | [14] inactive; negative

Cc1ccccc1OP(=O)(Oc1ccccc1C)Oc1ccccc1C
active: Test System: AMES SALMONELLA TYPHIMURIUM, Strain/Indicator: TA100, Metabolic Activation: RAT, LIVER, MICROSOMES, Method: STANDARD PLATE active; positive
inactive: [4] inactive; negative

O=C1C(c2[nH]c3ccccc3c2O)=Nc2ccccc21
active: Test System: AMES SALMONELLA TYPHIMURIUM, Strain/Indicator: TA98, Metabolic Activation: RAT, LIVER, S-9, AROCLOR 1254, Method: STANDARD PLATE active; positive
inactive: [3] inactive; negative | [4] inactive; negative | Test System: AMES SALMONELLA TYPHIMURIUM, Strain/Indicator: TA100, Metabolic Activation: RAT, LIVER, S-9, AROCLOR 1254, Method: STANDARD PLATE inactive; negative

CCOC(=O)c1ccccc1C(=O)OCC
active: [4] active; positive | Test System: AMES SALMONELLA TYPHIMURIUM, Strain/Indicator: TA1535, Metabolic Activation: NONE, Method: STANDARD PLATE active; positive
inactive: [5] inactive; negative | [1] inactive; negative | [6] inactive; negative | [7] inactive; negative | [2] inactive; negative | [8] inactive; negative | [15] inactive; negative | [9] inactive; negative | [10] inactive; negative | [11] inactive; negative | Test System: AMES SALMONELLA TYPHIMURIUM, Strain/Indicator: TA1535, Metabolic Activation: S-9, Method: STANDARD PLATE inactive; negative | [12] inactive; negative | [13] inactive; negative | [14] inactive; negative

COC1(O[C@H]2CC[C@H]3[C@@H]4CC[C@H]5C[C@@H]6S[C@@H]6C[C@]5(C)[C@H]4CC[C@]23C)CCCC1
inactive: [3] inactive; negative | Test System: AMES SALMONELLA TYPHIMURIUM, Strain/Indicator: TA98, Metabolic Activation: S-9, Method: STANDARD PLATE inactive; negative | [4] inactive; negative | [15] inactive; negative | Test System: AMES SALMONELLA TYPHIMURIUM, Strain/Indicator: TA1537, Metabolic Activation: S-9, Method: STANDARD PLATE inactive; negative | Test System: E. COLI, Strain/Indicator: WP2 (HCR), Metabolic Activation: NONE, Method: STANDARD PLATE inactive; negative | Test System: E. COLI, Strain/Indicator: WP2 (HCR), Metabolic Activation: S-9, Method: STANDARD PLATE inactive; negative

COc1cc(N=Nc2c(Br)cc([N+](=O)[O-])cc2[N+](=O)[O-])c(NC(C)=O)cc1N(CCOC(C)=O)CCOC(C)=O
active: End Point: IN VITRO CHROMOSOMAL ABERRATIONS, Test System: CHL CELLS, Metabolic Activation: NONE active; positive (structural changes)

COc1cc2c(c3oc(=O)c4c(c13)CCOC4=O)[C@@H]1CCO[C@@H]1O2
inactive: [2] inactive; negative | Test System: AMES SALMONELLA TYPHIMURIUM, Strain/Indicator: TA100, Metabolic Activation: RAT, LIVER, S-9, PHENOBARBITAL, Method: PREINCUBATION inactive; negative

COc1cccc2c1C(=O)c1c(O)c3c(c(O)c1C2=O)C[C@@](O)(C(C)=O)C[C@@H]3O[C@@H]1C[C@@H](N(C)C)[C@@H](O)[C@@H](C)O1
active: Test System: AMES SALMONELLA TYPHIMURIUM, Strain/Indicator: TA102, Metabolic Activation: NONE, Method: STANDARD PLATE active; positive
